Results on seven compounds are retold here after US8653132B2, “Phosphaplatins and their use in pharmaceutical compositions” (Ohio University, priority 2007, dated 2014).

Series [1] deals with CHO cell line. Description: Cytotoxic assay, CHO. Format: cell-based. An excerpt: In some embodiments, the complexes of the present invention are useful for treating various cancers. […] The complexes of the present invention are particularly desirable because they may have reduced toxicity in vivo.
For series [2], the system named is A2780 human ovarian cancer cells. As to the kind of experiment: Clonogenic assay, A2780. In kind it is cell-based. As to conditions: 1 hour drug treatment, 1 week colony formation, read-out: IC50 A780. As to the method:
(§1) Human ovarian cancer cells, A2780, were obtained from Dr. Thomas Hamilton (Fox Chase Cancer Center, Philadelphia, Pa.). Cells were cultured on monolayer using RPMI 1640 supplemented with 10% fetal bovine serum, 2 mM glutamine, 0.25 units/mL insulin and penicillin/streptomycin in a 37 degrees C. incubator continuously gassed with 5% CO2. Cells were subcultured using 0.0625% trypsin in HBSS to maintain cells in exponential growth.
(§2) IC50 values were determined using a clonogenic assay. Briefly, 500 A2780 cells from a single cell suspension were plated onto 60mm Petri plates 24 hours before drug treatment to permit cell attachment. On the day of drug treatment, the medium was decanted and replaced with the drug and these treated cells were placed back into the 37 degrees C. incubator for 1 hour. Triplicate plates were set up for each drug concentration. After the 1 hour drug treatment, the drug containing medium was decanted and replaced with fresh medium. These plates were returned to the 37 degrees C. incubator for 1 week for colony formation. Colonies were fixed and stained using 2% crystal violet in absolute methanol. Colonies containing more than 50 cells were scored. The number of scored colonies from the triplicate plates was averaged and this number was divided by the number of cells plated to obtain a value for the fraction of cells forming colonies. These values for fraction of cells forming colonies were then corrected for plating efficiency by dividing it by the number of cells forming colonies in plates that were not treated with drug.

Series [3] has as its system A2780/C30 cisplatin-resistant ovarian cell line. As to the kind of experiment: Clonogenic assay, cisplatin/carboplatin-resistant C30. Format: cell-based, human. To be noted: 1 hour drug treatment, 1 week colony formation. As for the experimental part: as §1, with “A cisplatin-resistant Ovarian cell line (C30) (Hamaguchi, et al., 1993),” for “Human ovarian cancer cells, A2780, were”, “Pa.), was treated with the monomeric platinum complexes of the present invention (shown in FIG. 2). This cell line is also cross resistant to carboplatin.” for “Pa.).”, “0.025%” for “0.0625%”
as §2, with “500 C30” for “500 A2780”, “onto 60 mm” for “onto 60mm”, “the one” for “the 1”, “dividing them” for “dividing it”

For series [4], the system named is UMSCC10b (Cisplatin-sensitive) cells. As to conditions: from Zheng et al., Clinical Cancer Research 1997; cited from earlier work.
The subject of series [5] is A2780 cells. Description: Cellular accumulation of platinum by atomic absorption, A2780. Format: cell-based, human. As to conditions: for Cellular accumulation of platinum: 1 hr exposure. As for the experimental part:
(§3) Platinum content was quantitatively estimated on a Graphite Furnace Atomic Absorption Spectrometer (Perkin Elmer AA-600) from calibration curves established by using cisplatin or pyrodach-2 in water. Cells (5×10^6) were seeded in T75 cm^2 flasks. After 24 h, these cells were then treated with the different concentrations (0, 10, 20, 30 and 50 μM) of cisplatin and pyrodach-2. After 1 hr exposure with the platinum complexes, the drug-containing medium was removed and the cells were washed with ice-cold phosphate-buffered saline (PBS). The cells were then trypsinized and centrifuged into a pellet. Cell pellets were digested in concentrated HNO3 and H2O2 prior to analysis, according to the method of McGahan. Data reported in Table 4 were collected from three independent experiments each was carried out in duplicate. For the cisplatin accumulation, data were obtained from triplicate runs from a single sample at a given concentration.

Series [6] has as its system A2780/C30 cells. As to the kind of experiment: Cellular accumulation of platinum by atomic absorption, A2780/C30. Format: cell-based, human. As to conditions: at its IC50 value.
The subject of series [7] is BAK1. Description: Apoptotic gene array, real-time PCR: BAK1. Format: cell-based. To be noted: preliminary. As to the method: (§4) Preliminary gene expression experiments involving complexes of the present invention as compared to cisplatin (data not shown) were carried out with an apoptotic array containing 84 genes that includes the BCL2 superfamily, both pro- and anti-apoptotic, caspases, the BIR-family, TNF receptor […] factors, p53 and its congeners, and fas associated members by real-time PCR. A closer look at the two sets of gene expressions clearly indicates a number of differences in the expression patterns. […] Specifically, fas was over-expressed by 6-fold compared to the control, and TNFRS genes such as TNFRSF-10B was overexpressed by 2-3 folds over controls. These latter receptor factors belong to the fas superfamily.
On the technique in general: In qPCR the cycle at which signal appears reflects the starting amount.

For series [8], the system named is A2780/C30 cells. Description: Cellular accumulation of platinum by atomic absorption, A2780/C30. Format: cell-based, human. To be noted: 1 hr exposure. As to the method:
as §3

The subject of series [9] is BAX. As to the kind of experiment: Apoptotic gene array, real-time PCR: BAX. Format: cell-based. As to conditions: preliminary. As for the experimental part:
as §4

In series [10] the test system is fas. Description: Apoptotic gene array, real-time PCR: fas. Format: cell-based. To be noted: preliminary. As to the method:
as §4

For series [11], the system named is calf-thymus DNA, oligonucleotide, dGpG, 5'-dGMP and 5'-dAMP. As to the kind of experiment: Platinum binding to DNA and nucleotides by NMR. As to conditions: 1H NMR, up to seven days. As to the method: (§5) In the associated experiment, dach-2 was allowed to react with double-stranded calf-thymus DNA, a synthetic oligonucleotide (5′-[…]-3′; SEQ ID NO:1), a dinucleotide (dGpG), and nucleotide monophosphates (5′-dGMP and 5′-dAMP) at concentrations as much as 250-times higher than those of cellular doses. The extent of DNA binding was monitored by ^1H NMR spectroscopy. In parallel, similar reactions with cisplatin were conducted under identical conditions.
(§6) Proton NMR spectroscopic experiments were conducted on a Bruker 500 MHz NMR instrument in 99% (atom) D2O with a water suppression pulse sequence. Samples contained cisplatin (2.0 mM) or pyrodach-2 (2.0 mM) and nucleotides (5′-dGMP, 5′-dAMP, dGpG (5.0 mM)), and, single- and double stranded DNA (calf thymus, 5.0 mM) at pH 7.0 maintained by phosphate and carbonate buffers (10-20 mM). Reactions of cisplatin (0.25 mM) and pyrodach-2 (0.25 mM) with a synthetic 25-mer: 5′-[…]-3′ (SEQ ID NO: 1) (0.25 mM) were also performed under identical conditions. Reactions were carried out up to 7 days, and ^1H and ^31P NMR spectra were recorded at regular time intervals. Usually, a pulse width of 5 μs with a 1.0 s repetition delay was used for the measurements. Typically, a sweepwidth of 10,000 Hz and 32 K data points were selected to collect the Free Induction Decays. A line broadening factor of 1 Hz was for applied Fourier transformation. […]

Series [12] deals with synthetic 25-mer oligonucleotide (SEQ ID NO:1). As to the kind of experiment: Platinum-DNA binding by NMR, 25-mer oligonucleotide. As to conditions: 1H NMR, identical conditions for both complexes. As for the experimental part:
as §5, §6

For series [13], the system named is guanine base. As to the kind of experiment: Guanine base binding by proton NMR. To be noted: cisplatin after 48 hours, am-2 96 hours, dach-2 106 hours. As to the method:
FIG. 12 is a comparison of guanine base binding (the predominant DNA binding site of cisplatin) among cisplatin (bottom), am-2 (middle), and dach-2 (top) by proton NMR spectroscopy. […] The bottom spectrum was recorded after 48 hours. The middle and top spectra were recorded after 96 and 106 hours, respectively.
Proton NMR spectroscopic experiments were conducted on a Bruker 500 MHz NMR instrument in 99% (atom) D2O with a water suppression pulse sequence. Samples contained cisplatin (2.0 mM) or pyrodach-2 (2.0 mM) and nucleotides (5′-dGMP, 5′-dAMP, dGpG (5.0 mM)), and, single- and double stranded DNA (calf thymus, 5.0 mM) at pH 7.0 maintained by phosphate and carbonate buffers (10-20 mM). Reactions of cisplatin (0.25 mM) and pyrodach-2 (0.25 mM) with a synthetic 25-mer: 5′-[…]-3′ (SEQ ID NO: 1) (0.25 mM) were also performed under identical conditions. Reactions were carried out up to 7 days, and ^1H and ^31P NMR spectra were recorded at regular time intervals. Usually, a pulse width of 5 μs with a 1.0 s repetition delay was used for the measurements. Typically, a sweepwidth of 10,000 Hz and 32 K data points were selected to collect the Free Induction Decays. A line broadening factor of 1 Hz was for applied Fourier transformation. The chemical shifts, with reference to H—O-D peak, are at 4.67 ppm.

The nature of series [14]: pKa from 31P chemical shift as a function of pH. Format: physicochemical. As to conditions: for pKa1 / pKa2: calculated from phosphorus-31 chemical shifts.

“Also recorded” adds a separate entry of the source.

Consider `N.N.O=C([O-])C1(C(=O)[O-])CCC1.[Pt+2]` [Carboplatin, diammine-1,1-dicarcarboxylatocyclobutane-platinum(II), reference compound], for which the IC50 – broadly, the concentration at which inhibition is half-maximal – is over 200 µM in series [1], 90 ± 13 µM in series [2] and over 200 µM in series [3].
Turning to `N.N.[Cl][Pt][Cl]` [Cisplatin, cisdiamminedichloroplatinum(II), reference compound], the IC50 in [1] was 29 ± 3 µM; in series [4], 17 µM; in series [2], 7.5 ± 1.5 µM; in series [3], 110 ± 11.3 µM. Besides, the “Cellular accumulation of platinum” value is 3.00 ± 0.05 ng/10^6 cells in series [5] (A2780, 10 μM); 5.00 ± 0.06 ng/10^6 cells in series [5] (A2780, 20 μM); 6.00 ± 0.10 ng/10^6 cells in series [5] (A2780, 30 μM); 20.00 ± 1.00 ng/10^6 cells in series [5] (A2780, 50 μM); 1.00 ± 0.10 ng/10^6 cells in series [8] (A2780/C30, 10 μM); 2.00 ± 0.40 ng/10^6 cells in series [8] (A2780/C30, 20 μM). The “Cellular accumulation of platinum” value is recorded as 2.00 ± 0.50 ng/10^6 cells in series [8] (A2780/C30, 30 μM) and 5.00 ± 1.00 ng/10^6 cells in [8] (A2780/C30, 50 μM). Also, the “accumulation in A2780 cells” value in series [5] (at 10 μM concentration) was 3.0 ng Pt/10^6 cells. In addition, the “platinum accumulation in the resistant cell lines” value in series [6] is over 5 ng Pt/10^6 cells. The BAK1 overexpression entry in [7] is “did not make significant changes”. Besides, the BAX overexpression entry in series [9] is listed as “did not make significant changes”. Further, in series [10], the “fas over-expression compared to the control” value is on record as “no significant over-expression; also recorded: marginal changes”. In addition, the “adduct formation with nucleotides” value in series [11] is “readily formed adducts with all the nucleotides”. For the same compound, the “DNA binding, 25-mer oligonucleotide” value in series [12] is on record as “readily forms covalent adducts with DNA”. In addition, the “guanine base binding (H8 signal)” value in series [13] is on record as “additional signal at 8.43 ppm for H8 proton due to guanine binding to cisplatin”.
`N.N.O=P1(O)[O][Pt][O]P(=O)(O)O1` [am-2, Diammine(dihydrogen pyrophosphato)platinum(II)]: the values for the IC50 in series [1], in series [2] and in [3] were 120 ± 30 µM, 100 ± 11 µM and over 200 µM, respectively. Also, in series [14], the pKa1 is listed as 2.9 ± 0.3. Moreover, the pKa2 in series [14] is listed as 4.7 ± 0.2. For the same compound, the “pKa1 (value in parentheses)” value in [14] (second value printed in parentheses under pKa1, not explained) is listed as “(3.8 ± 0.1)”. In [13], the “guanine base binding (H8 signal)” value is “only indicates the unbound guanine H8 signal but not platinum bound signal”.
With `N.N.O=P1(O)OP(=O)(O)[O][Pt]([OH])([OH])[O]1` [am-4, Cis-diammine-trans-dihydroxo(dihydrogen pyrophosphato)platinum (IV)], the results for the IC50 in series [1], in series [2] and in series [3] were over 200 µM, 175 ± 22 µM and over 200 µM, respectively. In addition, the pKa1 in [14] is listed as 2.0 ± 0.1. In series [14], the pKa2 is given as 4.7 ± 0.1.
Consider `NC1CCCCC1N.O=P([O-])(O)OP(=O)([O-])O.[OH-].[OH-].[Pt+4]` [dach-4, (Trans-1,2-cyclohexanediamine)-trans-dihyroxo(dihydrogenpyrophosphato)platinum(IV)], for which the figures for the IC50 in series [1], in [2] and in series [3] were 116 ± 17 µM, 180 ± 15 µM and 155 ± 17 µM, respectively.
Turning to `NCCN.O=P([O-])(O)OP(=O)([O-])O.[Pt+2]` [en-2, 1,2-Ethanediamine(dihydrogenpyrophosphato)platinum(II)], in series [14], the pKa1 is listed as 2.2 ± 0.1 and the pKa2 is 4.4 ± 0.1.
On to `NCCN.O=P([O-])(O)OP(=O)([O-])O.[OH-].[OH-].[Pt+4]` [en-4, 1,2-Ethanediamine-trans-dihydroxo(dihydrogenpyrophosphato)platinum(IV)], for which the IC50 in series [1] is over 200 µM; in series [2], 170 ± 33 µM; in series [3], over 200 µM. For the same compound, the pKa1 in series [14] is under 2. Besides, the pKa2 in series [14] was 4.3 ± 0.1.
